From article PMC2528830 (British Journal of Pharmacology, 2008)

Columns and labels:
GPR119 [1] = biological target: T1, GPR119 (Homo sapiens, UniProt Q8TDV5); test: cAMP accumulation in HEK293-GPR119 vs untransfected cells; assay type: cell-based
T1 sequence (Q8TDV5 1-335): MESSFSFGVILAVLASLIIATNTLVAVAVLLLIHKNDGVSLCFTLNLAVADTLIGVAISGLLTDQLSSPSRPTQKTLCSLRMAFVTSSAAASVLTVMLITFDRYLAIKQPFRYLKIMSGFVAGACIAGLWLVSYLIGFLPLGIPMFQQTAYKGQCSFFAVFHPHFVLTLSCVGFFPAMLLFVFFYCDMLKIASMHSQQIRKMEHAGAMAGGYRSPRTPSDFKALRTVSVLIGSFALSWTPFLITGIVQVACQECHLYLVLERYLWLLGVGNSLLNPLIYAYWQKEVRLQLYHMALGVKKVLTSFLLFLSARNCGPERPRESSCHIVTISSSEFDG

GPR119 [2] = biological target: T1, GPR119; test: insulin secretion at […] in RINm5f-GPR119 vs parental RINm5f cells; assay type: cell-based

| EC50 (GPR119 [1]) | SMILES | insulin secretion at 10 μM in RINm5f-GPR119 vs parental RINm5f cells (GPR119 [2]) |
| --- | --- | --- |
| 13.9 µM | CCCC[C@H]1CC[C@H](c2nc(-c3ccncc3)no2)CC1 [PSN375963] | – |
| – | CCCCCCCC/C=C\CCCCCCCC(=O)NCCO [oleoylethanolamide] | RINm5f cells transfected with human GPR119 (RIN-119 cells) responded to OEA and had an increased response to OLPC |
